What was measured:
diet-induced obese mice = details: cited from earlier work
IP6K3 = IP6K3 (Homo sapiens (Human), UniProt Q96PC2); experiment: Enzyme-coupled assay of IP6K3 activity (Dipp1-coupled, malachite green Pi release); assay type: biochemical; details: enzyme-coupled assay
IPMK = IPMK (Homo sapiens (Human), UniProt Q8NFU5); experiment: Enzyme-coupled assay, IPMK IC50; assay type: biochemical; details: enzyme-coupled assay
IP6K1 = IP6K1 (Homo sapiens (Human), UniProt Q92551); experiment: Enzyme-coupled assay of IP6K1 activity (Dipp1-coupled, malachite green Pi release); assay type: biochemical; details: enzyme-coupled assay
Chain of IP6K1 (Q92551 whole entry): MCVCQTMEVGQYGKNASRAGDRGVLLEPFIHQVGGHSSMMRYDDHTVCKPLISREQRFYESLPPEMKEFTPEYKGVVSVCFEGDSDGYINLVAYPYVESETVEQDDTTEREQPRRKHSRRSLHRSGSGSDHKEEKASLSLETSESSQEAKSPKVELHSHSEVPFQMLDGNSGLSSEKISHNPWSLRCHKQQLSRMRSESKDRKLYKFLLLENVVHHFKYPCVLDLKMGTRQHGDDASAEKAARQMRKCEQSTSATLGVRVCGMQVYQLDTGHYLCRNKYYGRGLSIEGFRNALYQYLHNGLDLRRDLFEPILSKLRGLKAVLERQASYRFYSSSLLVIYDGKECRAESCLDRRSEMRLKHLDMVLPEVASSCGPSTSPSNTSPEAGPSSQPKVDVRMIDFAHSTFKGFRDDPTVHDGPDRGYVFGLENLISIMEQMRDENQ
Description: (§1) […] The cells were disrupted using a constant cell disruption system (Constant Systems) under 20 kPsi.
(§2) Pi release was determined with a malachite green colorimetric assay.^45 Where indicated, TNP (Cayman Chemical) was added to the assays (FIG. 2A-E).

IP6K2 = IP6K2 (Homo sapiens (Human), UniProt Q9UHH9); experiment: Enzyme-coupled assay of IP6K2 activity (Dipp1-coupled, malachite green Pi release); assay type: biochemical; details: enzyme-coupled assay
Chain of IP6K2 (Q9UHH9 whole entry): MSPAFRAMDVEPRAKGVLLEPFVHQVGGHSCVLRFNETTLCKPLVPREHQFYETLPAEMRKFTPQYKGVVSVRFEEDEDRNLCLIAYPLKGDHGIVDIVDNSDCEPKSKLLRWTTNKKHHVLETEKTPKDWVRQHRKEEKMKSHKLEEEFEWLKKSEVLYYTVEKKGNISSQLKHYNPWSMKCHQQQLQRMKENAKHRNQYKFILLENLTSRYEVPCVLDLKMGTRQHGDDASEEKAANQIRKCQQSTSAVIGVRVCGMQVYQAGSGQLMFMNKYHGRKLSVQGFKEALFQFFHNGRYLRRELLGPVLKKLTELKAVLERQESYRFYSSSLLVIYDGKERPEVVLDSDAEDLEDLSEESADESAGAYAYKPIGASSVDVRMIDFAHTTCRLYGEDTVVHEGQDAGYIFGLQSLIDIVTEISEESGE
Description: as §1, §2

Chain of IPMK (Q8NFU5 whole entry, species assumed): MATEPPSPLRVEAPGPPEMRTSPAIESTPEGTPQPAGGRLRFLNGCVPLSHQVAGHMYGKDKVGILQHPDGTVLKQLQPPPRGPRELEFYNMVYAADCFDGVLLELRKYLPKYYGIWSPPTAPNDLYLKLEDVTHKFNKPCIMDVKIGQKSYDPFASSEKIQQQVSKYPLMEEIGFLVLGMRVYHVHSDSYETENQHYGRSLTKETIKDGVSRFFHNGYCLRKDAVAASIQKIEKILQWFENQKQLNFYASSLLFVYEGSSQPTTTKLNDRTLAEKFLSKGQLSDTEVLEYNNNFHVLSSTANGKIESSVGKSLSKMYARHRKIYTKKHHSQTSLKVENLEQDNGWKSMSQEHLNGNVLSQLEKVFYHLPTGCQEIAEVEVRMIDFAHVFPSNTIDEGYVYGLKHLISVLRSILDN
Chain of IP6K3 (Q96PC2 whole entry): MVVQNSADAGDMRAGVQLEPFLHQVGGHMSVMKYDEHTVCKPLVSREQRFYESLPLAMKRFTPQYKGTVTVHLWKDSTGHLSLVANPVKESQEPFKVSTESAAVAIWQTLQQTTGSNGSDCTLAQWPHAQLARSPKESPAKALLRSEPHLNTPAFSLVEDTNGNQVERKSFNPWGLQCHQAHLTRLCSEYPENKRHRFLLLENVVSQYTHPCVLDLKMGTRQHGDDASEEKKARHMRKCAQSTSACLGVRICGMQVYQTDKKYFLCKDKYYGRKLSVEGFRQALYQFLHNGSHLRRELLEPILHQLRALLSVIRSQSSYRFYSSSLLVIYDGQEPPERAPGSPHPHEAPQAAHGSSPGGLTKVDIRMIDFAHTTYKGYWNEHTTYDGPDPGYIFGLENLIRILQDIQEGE

Structure (SMILES)	Effect of treatment on obesity, insulin resistance and fatty liver (diet-induced obese mice)	IC50 (IP6K3; Table 4)	IC50 (IPMK; Table 4)	IC50 (IP6K1; Table 4)	IC50 (IP6K2; Table 4)	IC50 (IP6K3; Table 2)	IC50 (IPMK; Table 2)	IC50 (IP6K1; Table 2)	IC50 (IP6K2; Table 2)
O=[N+]([O-])c1ccc(CNc2nc(NCc3cccc(C(F)(F)F)c3)nc3nc[nH]c23)cc1 [TNP, N2-(m-Trifluorobenzyl)-N6-(p-nitrobenzyl)purine]	ameliorates obesity, insulin resistance and fatty liver								
CN(C)CCOc1ccc(-c2onc3ccc(-c4nnn[nH]4)cc23)cc1 [Compound 79]		100 to 1000 nM	1000 to 100000 nM	100 to 1000 nM	100 to 1000 nM				
O=C(Nc1ccc(-c2onc3ccc(-c4nnn[nH]4)cc23)cc1)C1CCCC1 [Compound 72]		< 10 nM	10 to 100 nM	10 to 100 nM	10 to 100 nM				
O=C(O)c1ccc2noc(-c3ccc(C(=O)NCCC4CC4)cc3)c2c1 [Compound 39]						100 to 1000 nM	100 to 1000 nM	100 to 1000 nM	100 to 1000 nM
c1cncc(-c2ccc(-c3onc4ccc(-c5nnn[nH]5)cc34)cc2)c1 [Compound 69]		100 to 1000 nM	< 10 nM	10 to 100 nM	10 to 100 nM				

From patent US20250154115A1, “ARYLBENZOISOXAZOLE COMPOUNDS AS IP6K AND IPMK INHIBITORS AND METHODS OF USE THEREOF” (THE UNIVERSITY OF NORTH CAROLINA AT CHAPEL HILL, priority 2022, published 2025)
